Data: US20160101076A1, “Use of Sumoylation Inhibitors for Treating Cancer” (priority 2013, published 2016)
Peptide text beside a SMILES is read from it. * marks the point of attachment. Cbz = O=C(OCc1ccccc1)*

Columns and labels:
[1] = system: sumoylated TFAP2A in BT549 cells; test: Sumoylation of TFAP2A in BT549 cells with peroxide / MG-132; type: cell-based, human
Procedure: FIG. 15A-15B. Sumoylated TFAP2A in Basal Cells Induced with Peroxide. Sumoylation of TFAP2A was analyzed in the basal cell line BT549 with and without treatment with peroxide. FIG. 15A. BT549 cells co-transfected with vectors for TFAP2A and either SUMO-1, -2 or -3 and treated without or with peroxide, as indicated. […] Experiment in A was performed in the absence of the proteasome inhibitor MG-132. FIG. 15B. Similar experiments performed with MG-132 treatment either without or with peroxide.
Sumoylation in vitro was done using SUMOlink™ SUMO-1 Kit and SUMOlink™ SUMO-2/3 Kit (Carlsbad). SUMO plasmids and pcDNA3.1-TFAP2A or K10R mutant were used for in vitro protein production. MCF-7 were transfected for 48 hours with […] SUMO expressing plasmids (Feng et al., 2013) that were kindly provided by Dr Xiaolu Yang (University of Pennsylvania). As indicated in some experiments, the proteasome inhibitor MG132 was added as described (Chu and Yang, 2011).

[2] = system: FREM2 and RET expression; test: Estrogen responsiveness of FREM2 expression, Tamoxifen treatment; type: cell-based; settings: FIG. 11E

For `CC(C)C[C@@H](C=O)NC(=O)[C@H](CC(C)C)NC(=O)[C@H](CC(C)C)NC(=O)OCc1ccccc1` [MG-132] (Cbz-Leu-Leu-Leu-aldehyde), the “identification of the sumoylated forms of TFAP2A” value ([1]; BT549 cells, MG-132 treatment without or with peroxide, FIG. 15B) was “enhanced identification”.
In the case of `CC/C(=C(\c1ccccc1)c1ccc(OCCN(C)C)cc1)c1ccccc1` [Tamoxifen], the FREM2 expression [2] is reported as “not estrogen responsive” and the RET expression [2] is reported as “appropriately repressed”.
For `OO` [peroxide], the “sumoylated TFAP2A” value ([1]; BT549 cells co-transfected with TFAP2A and SUMO-1, -2 or -3, with vs without peroxide, FIG. 15A) was “Induction”.
